Tests used:
[1] = system: Na^+/K^+ ATPase (α1 and β1); test: Pump-mediated steady-state current of Na+/K+ ATPase in Xenopus oocytes (two-electrode voltage clamp); format: cell-based, Locusta migratoria manilensis; settings: for effect on Na^+/K^+ ATPase steady-state current directly: oocytes expressing Na^+/K^+ ATPase without nAChRs, 1 μM nicotine and 1 μM DHβE
Protocol: (§1) The L. migratoria manilensis subunit α1 (KF813096) and subunit β1 (KF813099) of Na^+/k^+ ATPase, and subunit α1 (KF873578) of nAhCRs were subcloned into the expression vector pGH19 at sites of BamHIand XbaI, BamHI and ApaI, and EcoRI and XbaI, respectively. Rattus norvegicus β2 subunit (L31622) was also subcloned into the expression vector pGH19 as described previously. The cRNAs of all subunits were generated as described previously. Xenopus oocyte preparation and cRNA injection were performed as described previously. Electrophysiological recordings were made using a two-electrode voltage clamp (Multiclamp 700B Amplifier; Axon Instruments, Foster, CA, USA) as previously described. The measurement of the current of Na^+/K^+ ATPase was performed as described.

[2] = biological target: nAChRs (L. migratoria manilensis α1 and R. norvegicus β2) (Locusta migratoria manilensis, UniProt P12390+W6ECM5); test: Two-electrode voltage-clamp agonist dose-response on nAChRs expressed in Xenopus oocytes, with or without Na+/K+ ATPase; format: cell-based; settings: for effect of Na^+/K^+ ATPase co-expression on agonist sensitivity: co-expression of Na^+/K^+ ATPase vs nAChRs alone, increase not removed by ouabain
Description: To characterize the influence of Na^+/K^+ ATPase on nAChR function, nAChRs were expressed with or without Na^+/K^+ ATPase in Xenopus oocytes.
(B) Does-response curves for nicotine. (C) Does-response curves for imidacloprid. The curves from the oocytes expressing nAChRs (L. migratoria manilensis subunit α1 and R. norvegicus subunit β2) were indicated by open squares. The curves from the oocytes co-expressing nAChRs and Na^+/K^+ ATPase (subunit α1 and β1) were indicated by solid triangles (without ouabain) and open triangles (with ouabain).
as §1
Differences in responses (currents), Imax and EC50 values were analyzed by one-way ANOVA with at least three repeats (different batches of oocytes from different frogs). Multiple comparisons between the groups were performed using S-N-K method. The level of significance for results was set at p < 0.05.

Chain of nAChRs (L. migratoria manilensis α1 and R. norvegicus β2) (W6ECM5 21-570): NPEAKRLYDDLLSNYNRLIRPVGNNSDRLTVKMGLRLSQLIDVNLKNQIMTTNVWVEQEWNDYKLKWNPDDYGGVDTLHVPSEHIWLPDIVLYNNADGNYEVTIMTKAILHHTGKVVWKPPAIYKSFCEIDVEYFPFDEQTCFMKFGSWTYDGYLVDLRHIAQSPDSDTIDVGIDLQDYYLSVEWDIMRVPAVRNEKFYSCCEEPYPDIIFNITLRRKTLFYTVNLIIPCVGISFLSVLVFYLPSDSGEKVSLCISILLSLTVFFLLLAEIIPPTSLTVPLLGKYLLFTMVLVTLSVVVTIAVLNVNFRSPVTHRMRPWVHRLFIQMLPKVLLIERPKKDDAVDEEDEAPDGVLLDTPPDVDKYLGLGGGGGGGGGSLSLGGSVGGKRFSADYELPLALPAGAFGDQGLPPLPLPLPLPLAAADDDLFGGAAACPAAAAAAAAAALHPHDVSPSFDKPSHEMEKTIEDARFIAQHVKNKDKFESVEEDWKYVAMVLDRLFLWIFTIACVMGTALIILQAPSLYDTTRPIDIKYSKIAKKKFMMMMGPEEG
Chain of nAChRs (L. migratoria manilensis α1 and R. norvegicus β2) (P12390 25-500): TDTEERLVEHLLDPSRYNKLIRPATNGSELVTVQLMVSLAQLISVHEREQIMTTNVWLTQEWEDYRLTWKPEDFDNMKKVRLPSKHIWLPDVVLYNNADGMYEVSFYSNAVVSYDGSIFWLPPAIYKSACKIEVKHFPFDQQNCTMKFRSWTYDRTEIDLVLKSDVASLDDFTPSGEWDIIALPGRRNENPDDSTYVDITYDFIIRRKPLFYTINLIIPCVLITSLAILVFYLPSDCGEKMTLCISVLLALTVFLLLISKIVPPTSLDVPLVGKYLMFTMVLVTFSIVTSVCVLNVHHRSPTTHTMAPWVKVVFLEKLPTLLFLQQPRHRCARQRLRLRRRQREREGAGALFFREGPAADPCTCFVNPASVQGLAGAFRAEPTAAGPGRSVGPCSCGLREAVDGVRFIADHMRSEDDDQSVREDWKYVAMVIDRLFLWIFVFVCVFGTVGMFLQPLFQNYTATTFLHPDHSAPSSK

Row | SMILES | effect on Na^+/K^+ ATPase steady-state current directly [1] | effect of Na^+/K^+ ATPase co-expression on agonist sensitivity [2] | steady state current of Na^+/K^+ ATPase ([1]; oocytes co-expressing Na^+/K^+ ATPase and nAChRs, 1 μM nicotine, with 1 μM DHβE to suppress nAChR currents) | EC50 ([2]; oocytes only expressing nAChRs) [µM]
1 | CO[C@H]1CC=C2CCN3CCC4=C(CC(=O)OC4)[C@]23C1 [DHβE, dihydro-β-erythroidine] | no effects |  |  | 
2 | CN1CCC[C@H]1c1cccnc1 [nicotine] | no effects | increase agonist sensitivities | increased significantly | 
3 | O=[N+]([O-])NC1=NCCN1Cc1ccc(Cl)nc1 [imidacloprid] |  | increase agonist sensitivities |  | 
4 | CC(=O)OCC[N+](C)(C)C [ACh, acetylcholine] |  |  |  | 63.2 ± 5.14

Reference: PMC4351541 (Scientific Reports, 2015)
